Measured values: patent publication US20040138272A1, “1,4-Substituted cyclohexane derivatives” (priority 2002, published 2004)
“Also recorded” adds a separate entry of the source. Like-named read-outs stand apart in the source and are kept apart here.

Tests used:
[1] = biological target: glycogen synthatase kinase 3 beta (GSKB) (Homo sapiens, UniProt P49841); experiment: GSK B kinase activity of compounds (FIG. 10); assay type: biochemical; conditions: 10 uM
PRK2 = PRK2 (Homo sapiens, UniProt Q16513); conditions: cited from earlier work
MSK1 = MSK1 (Homo sapiens, UniProt O75582); conditions: cited from earlier work
MAPKAP-K1b = MAPKAP-K1b (Oryctolagus cuniculus, UniProt A0A5F9C4L9); conditions: cited from earlier work
PHK = conditions: cited from earlier work
[2] = rat, in vivo, po, 30 mg/kg; cited from earlier work
[3] = cited from earlier work
[4] = system: NG108-15 neuronal cell line; experiment: Rapid bioassay of neurite growth in NG108-15 cells; assay type: cell-based; conditions: NG108 cells, 3.1 to 31 μM
Description: When neurons are placed on inhibitory substrates in tissue culture, the neurons remain rounded. When an effective Rho kinase inhibitor is added to the neurons, the neurons are able to grow neurites on myelin substrates. The time that it takes for neurons to grow neurites after the addition of a Rho kinase inhibitor is about the same as the time that it takes for neurons to grow neurites if the neurons had been plated on growth permissive substrate such as laminin or polylysine, which time is typically 1 to 2 days in cell culture. An assessment of resulting neurite growth can be scored by visual means. If needed, a quantitative assessment of neurite growth can be performed. This involves measuring after a time such as 1 to 2 days the neurite length a) in control cultures where neurons are plated on myelin substrates and left untreated with Rho kinase inhibitor for such time, b) in positive control cultures, wherein for example neurons are plated on polylysine but left untreated with Rho kinase inhibitor for such time, and c) in cultures analogous to a) and b) that are treated with different concentrations of a Rho kinase inhibitor for such time. […] In this assay, NG108 cells are plated on plastic in the presence or absence of the test substance (a Rho kinase inhibitor). […] The relative efficacy can be assessed by fixing the cultures 5 hours after plating, and counting the number of cells that have grown neurites.
A rapid bioassay is used to determine the effect of a test compounds on the stimulation of neurite growth in vitro. A neuronal cell line, NG108-15 (ATCC HB-12317), is maintained in culture in Dulbecco's minimal essential medium (DMEM) supplemented with 10% fetal bovine serum, Penicillin/Streptomycin and HAT supplement (Gibco/BRL). For the bioassay, the cells are collected by trypsinisation and ressuspended in DMEM supplemented with 5% FBS, Penicillin/Streptomycin, HAT supplement and 0.25 mg/ml cAMP, adjusted to 1.0×10^4 cells/ml. The cells are plated into wells of a 96 well plate at 100 μls (1000 cells)/well. Cells are incubated 4 h at 37° C. and 5% CO2 in presence of small molecules or cethrin at a concentration of 1000 cells per well of a 96-wells plate in a final volume of 100 ul.
After incubation, cells are fixed by adding […] 16% PFA and 5.4 μls 2.5% glutaraldehyde to the media in each well. The wells are stained with cresyl violet 0.05% , 100 μls/well for 15 min. Cells with neurites (length≧one cell body) are counted using an inverted light microscope. The % neurite outgrowth is determined by calculating the number of cells with neurites over the total number of counted cells.

[5] = system: PC12 cells on MAG substrates; experiment: Bioassay of PC12 neurite growth on growth inhibitory myelin-associated glycoprotein (MAG) substrates; assay type: cell-based; conditions: Dihydrochloride; for neurite outgrowth on inhibitory MAG substrates (FIG. 4): PC12 cells, 0.31, 3.1 or 31 uM
Description: PC-12 cells (ATCC CRL-1721) typically extend neurites in response to NGF, but when plated on inhibitory substrates, this outgrowth is inhibited and the cells remain round. We tested the ability of the new compound to grow neurites when plated on inhibitory substrates.
We used PC12 cells obtained from the American Type Culture Collection. PC12 cells were grown in Dulbecco's modified eagle's medium (DMEM) with 10% horse serum and 5% fetal bovine serum. To test compounds for the ability to overcome growth inhibition, PC12 cells were collected by detaching with trypsin-EDTA (0.05%), then resuspended in DMEM, 1% FBS, and 50 ng/ml nerve growth factor before plating on MAG substrates. MAG used for substrates was purified from myelin after extraction in 1% octylglucoside and separation by ion exchange chromatography (McKerracher et al. 1994, Neuron 13:805-811). Test substrates were prepared as uniform substrates in 96-well plates by drying overnight in the laminar flow hood (Nalge Nunc, Naperville, Ill.). Plates were precoated with polylysine (100 μg/ml) for 3 hours at 37° C., then washed and dried approx. 1 hour. MAG was prepared as a substrate by drying down 8 μg of protein overnight. After plating on the MAG substrate, the cells were grown at 37 C. for two days in the presence or absence of test compound (BA1003, BA1016, BA1017) to allow neurite growth. Polylysine substrates were used as a positive control. Quantitative analysis of neurite outgrowth was with the aid of Northern Eclipse software (Empix Imaging, Mississauga, Ontario). Data analysis and statistics were with Microsoft Excel.
Referring to FIG. 4 there is shown a graph illustrative of experiments performed in triplicate testing the ability of BA-1003, BA-1016 and BA-1017 to overcome growth inhibition by MAG. PC12 cells were plated on MAG substrates alone (MAG) or MAG substrates in the presence of 0.31 uM, 3.1 um or 31 um concentrations of the test compound. The numbers of neurons that grew neurites were scored, and are shown as the percentage of neurite growth.

ROCK II = biological target: T1, ROCK II (Rattus norvegicus, UniProt Q62868); experiment: ROCK II kinase assay with [γ-32P] ATP and myelin basic protein substrate (FIG. 3); assay type: biochemical; conditions: 100 μM ATP, 30 min at 30° C.
T1 construct: purchased Upstate (Lake Placid, N.Y.)
From the text: The ability of compounds to inhibit ROK activity may be tested in a cell-free assay system using recombinant ROK, radiaoactive ATP, and Myelin basic Protein (MBP). MBP is a highly phosphorylated protein, is inexpensive to buy in purified form, is phosphorylated by ROK, and is used as the assay substrate for phosphorylation. Recombinant ROK has been prepared from a number of sources. Overexpression in mammalian cells provides a convenient, easily renewed source of ROK activity. Measurement of Rho-associated kinase (ROK) activity is important to determine the potency of novel inhibitors. MBP is a substrate for ROK and a number of other protein kinases, making it useful both to quantitate ROK activity and to indicate the potency and specificity of novel inhibitors for ROK. […]
ROCK II was assayed in 20 mM MOPS, pH 7.2, 25 mM β-glycerophosphate, 5 mM EGTA, 1 mM sodium orthovanadate, 1 mM dithiothreitol with dephosphorylated myelin basic protein (MBP, 0.2 mg/ml) as substrate with or without BA-1016 or BA-1017. […] Assays were initiated by adding Mg^2+/ATP and terminated by spotting 40 μl of each reaction onto phosphocellulose paper (P81 paper, Whatman), followed by washes in 0.75% phosphoric acid to remove ATP and then dried, put in scintillation cocktail and counted to measure ^32P incorporation. Radioactivity is measured using a scintillation counter. […]

glycogen synthatase kinase 3 beta (GSKB), sequence (P49841 whole entry): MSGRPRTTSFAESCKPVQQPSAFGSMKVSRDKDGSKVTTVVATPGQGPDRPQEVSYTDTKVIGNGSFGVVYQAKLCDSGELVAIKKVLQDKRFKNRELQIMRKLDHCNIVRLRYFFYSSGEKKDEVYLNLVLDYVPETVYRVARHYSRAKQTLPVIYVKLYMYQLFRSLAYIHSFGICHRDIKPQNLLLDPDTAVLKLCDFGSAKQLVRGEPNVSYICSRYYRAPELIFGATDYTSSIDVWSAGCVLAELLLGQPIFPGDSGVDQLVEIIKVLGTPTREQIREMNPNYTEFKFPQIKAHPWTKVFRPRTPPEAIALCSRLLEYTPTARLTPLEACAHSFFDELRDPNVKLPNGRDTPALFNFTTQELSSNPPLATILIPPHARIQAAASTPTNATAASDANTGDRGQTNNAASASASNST
MAPKAP-K1b, sequence (A0A5F9C4L9 1-740): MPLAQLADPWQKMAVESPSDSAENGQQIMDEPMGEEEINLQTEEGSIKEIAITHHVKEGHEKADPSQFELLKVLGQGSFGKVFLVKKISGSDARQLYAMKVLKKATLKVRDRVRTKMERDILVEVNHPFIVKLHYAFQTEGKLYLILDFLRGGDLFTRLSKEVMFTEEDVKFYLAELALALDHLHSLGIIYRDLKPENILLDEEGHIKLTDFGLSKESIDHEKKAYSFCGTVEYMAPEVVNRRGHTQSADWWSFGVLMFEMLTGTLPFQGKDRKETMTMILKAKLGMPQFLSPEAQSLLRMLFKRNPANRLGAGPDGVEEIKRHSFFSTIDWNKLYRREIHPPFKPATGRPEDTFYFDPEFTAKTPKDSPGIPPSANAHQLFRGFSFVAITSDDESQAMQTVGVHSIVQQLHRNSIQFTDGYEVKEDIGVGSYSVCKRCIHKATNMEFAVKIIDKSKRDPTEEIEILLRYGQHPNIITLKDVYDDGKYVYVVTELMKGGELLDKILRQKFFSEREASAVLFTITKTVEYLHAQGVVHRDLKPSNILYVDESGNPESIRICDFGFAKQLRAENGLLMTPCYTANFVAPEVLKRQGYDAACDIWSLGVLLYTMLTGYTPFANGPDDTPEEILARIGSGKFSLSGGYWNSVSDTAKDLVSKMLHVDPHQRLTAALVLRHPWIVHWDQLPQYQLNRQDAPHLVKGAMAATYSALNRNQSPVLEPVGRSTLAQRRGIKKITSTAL
T1 sequence (Q62868 11-550 limits assumed): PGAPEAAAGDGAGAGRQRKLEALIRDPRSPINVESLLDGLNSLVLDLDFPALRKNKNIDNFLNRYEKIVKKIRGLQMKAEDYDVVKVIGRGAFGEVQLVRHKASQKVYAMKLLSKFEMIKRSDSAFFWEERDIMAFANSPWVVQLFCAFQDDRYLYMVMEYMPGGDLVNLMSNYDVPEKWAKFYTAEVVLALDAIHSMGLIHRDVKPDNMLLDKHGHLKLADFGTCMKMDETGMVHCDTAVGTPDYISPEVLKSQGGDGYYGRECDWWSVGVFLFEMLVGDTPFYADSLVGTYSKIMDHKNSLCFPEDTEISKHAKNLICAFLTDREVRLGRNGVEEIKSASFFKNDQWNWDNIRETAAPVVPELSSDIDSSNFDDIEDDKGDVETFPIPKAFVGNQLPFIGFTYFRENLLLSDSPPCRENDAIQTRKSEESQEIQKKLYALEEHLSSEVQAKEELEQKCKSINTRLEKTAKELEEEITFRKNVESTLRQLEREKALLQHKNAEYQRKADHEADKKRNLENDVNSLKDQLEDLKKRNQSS
MSK1, sequence (O75582 whole entry, species assumed): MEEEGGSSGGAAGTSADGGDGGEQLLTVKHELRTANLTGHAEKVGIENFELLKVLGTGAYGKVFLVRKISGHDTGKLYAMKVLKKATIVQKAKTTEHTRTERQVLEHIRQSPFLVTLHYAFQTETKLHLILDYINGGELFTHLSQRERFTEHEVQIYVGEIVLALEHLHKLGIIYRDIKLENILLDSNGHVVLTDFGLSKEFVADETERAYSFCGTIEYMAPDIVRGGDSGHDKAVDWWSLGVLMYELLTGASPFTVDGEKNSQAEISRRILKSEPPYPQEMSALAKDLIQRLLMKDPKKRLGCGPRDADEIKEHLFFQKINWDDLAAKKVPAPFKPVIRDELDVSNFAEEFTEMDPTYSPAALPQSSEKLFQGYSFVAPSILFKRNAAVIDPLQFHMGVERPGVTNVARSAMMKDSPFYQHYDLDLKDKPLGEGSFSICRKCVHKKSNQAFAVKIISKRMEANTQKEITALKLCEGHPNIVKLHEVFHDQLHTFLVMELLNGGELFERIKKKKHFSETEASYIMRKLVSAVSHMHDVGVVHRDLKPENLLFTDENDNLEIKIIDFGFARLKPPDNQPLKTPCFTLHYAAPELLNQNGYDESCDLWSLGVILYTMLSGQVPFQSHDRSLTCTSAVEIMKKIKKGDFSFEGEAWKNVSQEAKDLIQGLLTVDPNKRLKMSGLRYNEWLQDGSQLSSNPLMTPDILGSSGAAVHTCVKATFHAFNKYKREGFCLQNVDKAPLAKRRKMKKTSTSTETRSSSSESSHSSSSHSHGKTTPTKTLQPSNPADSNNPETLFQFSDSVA
PRK2, sequence (Q16513 whole entry): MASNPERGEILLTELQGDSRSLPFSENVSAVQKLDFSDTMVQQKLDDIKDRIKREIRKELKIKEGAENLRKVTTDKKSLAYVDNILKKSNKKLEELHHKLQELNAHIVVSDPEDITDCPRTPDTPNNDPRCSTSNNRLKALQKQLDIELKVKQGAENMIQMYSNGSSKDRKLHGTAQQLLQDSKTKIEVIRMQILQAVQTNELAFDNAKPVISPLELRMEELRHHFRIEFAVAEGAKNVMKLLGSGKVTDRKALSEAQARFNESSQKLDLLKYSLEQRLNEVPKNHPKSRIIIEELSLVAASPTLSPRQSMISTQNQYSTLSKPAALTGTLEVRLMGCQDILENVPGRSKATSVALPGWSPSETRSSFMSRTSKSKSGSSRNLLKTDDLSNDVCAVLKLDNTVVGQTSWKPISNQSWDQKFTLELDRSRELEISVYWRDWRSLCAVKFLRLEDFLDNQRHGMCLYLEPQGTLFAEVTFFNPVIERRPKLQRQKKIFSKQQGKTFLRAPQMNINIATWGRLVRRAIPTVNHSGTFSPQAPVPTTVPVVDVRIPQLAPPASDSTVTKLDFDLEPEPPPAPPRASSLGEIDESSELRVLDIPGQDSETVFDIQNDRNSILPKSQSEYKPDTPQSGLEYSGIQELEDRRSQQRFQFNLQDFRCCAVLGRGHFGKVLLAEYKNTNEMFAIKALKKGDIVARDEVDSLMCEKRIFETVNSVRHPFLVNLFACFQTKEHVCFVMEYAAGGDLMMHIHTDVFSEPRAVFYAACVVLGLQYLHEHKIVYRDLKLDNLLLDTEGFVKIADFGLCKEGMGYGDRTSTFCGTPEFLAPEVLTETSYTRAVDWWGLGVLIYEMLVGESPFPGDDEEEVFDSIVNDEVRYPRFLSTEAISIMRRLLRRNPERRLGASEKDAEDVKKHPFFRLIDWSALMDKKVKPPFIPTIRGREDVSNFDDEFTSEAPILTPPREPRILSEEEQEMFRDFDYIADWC

C=CC[C@@H](NC)[C@H]1CC[C@H](C(=O)Nc2ccncc2)CC1.Cl.Cl (relative stereo) [BA-1028, (R,S)-trans-4-[(N′-methyl)-but-3′-en-1′-amino]-N-(4″-pyridyl)cyclohexane Carboxamide Dihydrochloride]
activity towards GSKB (FIG. 10) [1]: can exert activity

C=CC[C@@H](NCc1ccccc1)[C@H]1CC[C@H](C(=O)Nc2ccncc2)CC1.Cl.Cl (relative stereo) [BA-1029, (R,S)-trans-4-[(N′-benzyl)-but-3′-en-1′-amino]-N-(4″-pyridyl)cyclohexane Carboxamide Dihydrochloride]
activity towards GSKB (FIG. 10) [1]: can exert activity

C[C@@H](N)[C@H]1CC[C@H](C(=O)Nc2ccncc2)CC1.Cl.Cl (relative stereo) [Y-27632, (R)-trans-4-(Ethan-1′-amino)-N-(4″-pyridyl)cyclohexane Carboxamide Dihydrochloride]
inhibition of PRK2 (PRK2): inhibits
inhibition of MSK1 (MSK1): inhibits
inhibition of MAPKAP-K1b (MAPKAP-K1b): inhibits
inhibition of PHK (PHK): inhibits
toxicity [2]: not toxic
blood pressure ([3]; hypertensive rats): reduces blood pressure
blood pressure ([3]; normal rats): does not affect blood pressure

C=CC[C@@H](N)[C@H]1CC[C@H](C(=O)Nc2ccncc2)CC1.Cl.Cl (stereo in doubt) [BA-1003]
neurite outgrowth (FIG. 2) [4]: promote neurite outgrowth
neurite outgrowth on inhibitory MAG substrates (FIG. 4) [5]: can promote neurite outgrowth; also recorded: able to overcome growth inhibition by MAG

C=CC[C@H](N)[C@H]1CC[C@H](C(=O)Nc2ccncc2)CC1.Cl.Cl (stereo in doubt) [BA-1017]
neurite outgrowth (FIG. 2) [4]: promote neurite outgrowth
inhibition of ROCKII activity (FIG. 3) (ROCK II): inhibition of ROCKII activity
neurite outgrowth on MAG substrates at the lowest concentration tested ([5]; PC12 cells, 0.31 uM): better neurite outgrowth; also recorded: effective
neurite outgrowth on inhibitory MAG substrates (FIG. 4) [5]: can promote neurite outgrowth; also recorded: able to overcome growth inhibition by MAG

Cl.Cl.O=C(Nc1ccncc1)[C@H]1CC[C@H](NNCC(c2ccccc2)c2ccccc2)CC1 [BA-1034, trans-4-{N′-[2′,2′-(Diphenyl)ethyl]hydrazino}-N-(4′″-pyridyl)cyclohexane Carboxamide Dihydrochloride]
activity towards GSKB (FIG. 10) [1]: can exert activity

Cl.Cl.O=C(Nc1ccncc1)[C@H]1CC[C@H](NNCc2ccc(OCc3ccccc3)cc2)CC1 [BA-1035, trans-4-{N′-[4′-(Benzyloxy)benzyl]hydrazino}-N-(4′″-pyridyl)cyclohexane Carboxamide Dihydrochloride]
activity towards GSKB (FIG. 10) [1]: can exert activity

Cl.Cl.O=C(Nc1ccncc1)[C@H]1CC[C@H](NNCC2CCCCC2)CC1 [BA-1036, trans-4-{N′-[(Cyclohexyl)methyl]hydrazino}-N-(4′″-pyridyl)cyclohexane Carboxamide Dihydrochloride]
activity towards GSKB (FIG. 10) [1]: can exert activity

Cl.Cl.O=C(Nc1ccncc1)[C@H]1CC[C@H](NNC/C=C/c2ccccc2)CC1 [BA-1038, 1,4-trans-2′,3′-trans-4-{N′-[3′-(Phenyl)prop-2′-enyl]hydrazino}-N-(4′″-pyridyl)cyclohexane Carboxamide Dihydrochloride]
activity towards GSKB (FIG. 10) [1]: can exert activity
